Results reported in patent US9708316B2 (BRISTOL-MYERS SQUIBB COMPANY, priority 2014, dated 2017).

Tests used:
HIS-TGFβR1 T204D = target: T1, HIS-TGFβR1 T204D (Homo sapiens, UniProt P36897, T204D); experiment: HTRF probe-displacement assay, HIS-TGFβR1 T204D; assay type: binding; details: read-out: TGFβR1 (μM) IC50
T1 sequence (P36897 34-503 T204D): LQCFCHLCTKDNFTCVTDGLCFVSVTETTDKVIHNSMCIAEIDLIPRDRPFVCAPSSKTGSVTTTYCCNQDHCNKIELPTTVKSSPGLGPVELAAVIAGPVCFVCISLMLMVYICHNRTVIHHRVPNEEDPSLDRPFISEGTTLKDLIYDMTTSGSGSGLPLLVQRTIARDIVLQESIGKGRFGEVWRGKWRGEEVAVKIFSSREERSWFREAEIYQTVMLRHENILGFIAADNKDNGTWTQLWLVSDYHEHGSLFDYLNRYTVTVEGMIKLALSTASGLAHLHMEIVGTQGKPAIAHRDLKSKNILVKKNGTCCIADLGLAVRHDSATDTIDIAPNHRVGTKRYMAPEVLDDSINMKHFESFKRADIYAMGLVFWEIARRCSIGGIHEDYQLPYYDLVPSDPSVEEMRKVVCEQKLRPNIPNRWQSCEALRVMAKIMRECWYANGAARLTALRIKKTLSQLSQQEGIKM

HIS-TGFβR2 WT = HIS-TGFβR2 WT (Homo sapiens, UniProt P37173); experiment: HTRF probe-displacement assay, HIS-TGFβR2 WT; assay type: binding
Chain of HIS-TGFβR2 WT (P37173 23-567): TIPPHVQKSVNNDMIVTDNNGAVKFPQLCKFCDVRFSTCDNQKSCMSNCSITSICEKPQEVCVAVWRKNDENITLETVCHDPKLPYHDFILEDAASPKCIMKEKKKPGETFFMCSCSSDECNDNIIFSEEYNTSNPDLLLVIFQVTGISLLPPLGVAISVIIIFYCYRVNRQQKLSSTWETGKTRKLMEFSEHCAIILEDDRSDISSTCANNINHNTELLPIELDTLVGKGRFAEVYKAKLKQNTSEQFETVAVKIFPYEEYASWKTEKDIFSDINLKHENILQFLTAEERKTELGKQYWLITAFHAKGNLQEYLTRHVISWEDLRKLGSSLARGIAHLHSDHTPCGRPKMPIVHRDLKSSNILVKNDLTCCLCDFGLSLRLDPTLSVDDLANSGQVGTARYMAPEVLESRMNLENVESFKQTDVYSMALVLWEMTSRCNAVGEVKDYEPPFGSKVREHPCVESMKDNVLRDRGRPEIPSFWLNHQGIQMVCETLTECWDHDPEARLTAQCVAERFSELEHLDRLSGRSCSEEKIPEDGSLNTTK

Row | IC50 (HIS-TGFβR1 T204D) [µM] | IC50 (HIS-TGFβR2 WT) [µM] | Compound
1 | 0.001 | 1.66 | CCN1CCN(CC(=O)Nc2cc(-c3[nH]c4cc(Cl)cnc4c3-c3ccc(OC)nc3)ccn2)CC1 [Example 291, N-(4-(6-chloro-3-(6-methoxypyridin-3-yl)-1H-pyrrolo[3,2-b]pyridin-2-yl)pyridin-2-yl)-2-(4-ethylpiperazin-1-yl)acetamide]
2 | 0.001 | 1.51 | COc1ccc(-c2c(-c3ccnc(NC(=O)CN4CCN(C)CC4)c3)[nH]c3cc(Cl)cnc23)cn1 [Example 292, N-(4-(6-chloro-3-(6-methoxypyridin-3-yl)-1H-pyrrolo[3,2-b]pyridin-2-yl)pyridin-2-yl)-2-(4-methylpiperazin-1-yl)acetamide]
3 | 0.016 | > 15 | CNCc1cnc2c(-c3ccc(OC)cn3)c(-c3ccnc(NC(C)=O)c3)[nH]c2c1 [Example 293, N-(4-(3-(5-Methoxypyridin-2-yl)-6-((methylamino)methyl)-1H-pyrrolo[3,2-b]pyridin-2-yl)pyridin-2-yl)acetamide]
4 | 0.063 | > 15 | CCCNCc1cnc2c(-c3ccc(OC)cn3)c(-c3ccnc(NC(C)=O)c3)[nH]c2c1 [Example 294, N-(4-(3-(5-methoxypyridin-2-yl)-6-((propylamino)methyl)-1H-pyrrolo[3,2-b]pyridin-2-yl)pyridin-2-yl)acetamide]
5 | 0.001 | > 15 | COc1ccc(-c2c(-c3ccnc(NC(C)=O)c3)[nH]c3cc(C(O)C(F)(F)C(N)=O)cnc23)nc1 (centres unmarked) [Example 295, 3-(2-(2-Acetamidopyridin-4-yl)-3-(5-methoxypyridin-2-yl)-1H-pyrrolo[3,2-b]pyridin-6-yl)-2,2-difluoro-3-hydroxypropanamide]
6 | 0.002 | 0.038 | COc1ccc(-c2c(-c3ccnc(NC(C)=O)c3)[nH]c3c(C(C)(C)O)ccnc23)cn1 [Example 299, N-(4-(7-(2-Hydroxypropan-2-yl)-3-(6-methoxypyridin-3-yl)-1H-pyrrolo[3,2-b]pyridin-2-yl)pyridin-2-yl)acetamide]
7 | 0.003 | 0.017 | COc1ccc(-c2c(-c3ccnc(NC(C)=O)c3)[nH]c3c(C(O)C(C)C)ccnc23)cn1 (centres unmarked) [Example 300, N-(4-(7-(1-Hydroxy-2-methylpropyl)-3-(6-methoxypyridin-3-yl)-1H-pyrrolo[3,2-b]pyridin-2-yl)pyridin-2-yl)acetamide]

Further lines, the compound ahead of its results:

Row | Compound | IC50 (HIS-TGFβR1 T204D) [µM] | IC50 (HIS-TGFβR2 WT) [µM]
8 | COc1ccc(-c2c(-c3ccnc(NC(=O)CN4CCOCC4)c3)[nH]c3cc(Cl)cnc23)cn1 [Example 290, N-(4-(6-Chloro-3-(6-methoxypyridin-3-yl)-1H-pyrrolo[3,2-b]pyridin-2-yl)pyridin-2-yl)-2-morpholinoacetamide] | 0.002 | 1.12
9 | COc1ccc(-c2c(-c3ccnc(NC(C)=O)c3)[nH]c3cc(C(=O)C(F)(F)F)cnc23)nc1 [Example 296, N-(4-(3-(5-Methoxypyridin-2-yl)-6-(2,2,2-trifluoroacetyl)-1H-pyrrolo[3,2-b]pyridin-2-yl)pyridin-2-yl)acetamide] | 0.002 | 7.78
10 | COc1ccc(-c2c(-c3ccnc(NC(C)=O)c3)[nH]c3cc(C(O)C(F)(F)F)cnc23)nc1 (centres unmarked) [Example 297, N-(4-(3-(5-Methoxypyridin-2-yl)-6-(2,2,2-trifluoro-1-hydroxyethyl)-1H-pyrrolo[3,2-b]pyridin-2-yl)pyridin-2-yl)acetamide] | 0.004 | 4.33
11 | COc1ccc(-c2c(-c3ccnc(NC(C)=O)c3)[nH]c3c(C(C)=O)ccnc23)cn1 [Example 298, N-(4-(7-Acetyl-3-(6-methoxypyridin-3-yl)-1H-pyrrolo[3,2-b]pyridin-2-yl)pyridin-2-yl)acetamide] | 0.008 | 0.12
12 | CCC(O)c1ccnc2c(-c3ccc(OC)nc3)c(-c3ccnc(NC(C)=O)c3)[nH]c12 (centres unmarked) [Example 301, N-(4-(7-(1-Hydroxypropyl)-3-(6-methoxypyridin-3-yl)-1H-pyrrolo[3,2-b]pyridin-2-yl)pyridin-2-yl)acetamide] | 0.001 | 0.031
13 | CCC(OC(N)=O)c1ccnc2c(-c3ccc(OC)nc3)c(-c3ccnc(NC(C)=O)c3)[nH]c12 (centres unmarked) [Example 302, 1-(2-(2-Acetamidopyridin-4-yl)-3-(6-methoxypyridin-3-yl)-1H-pyrrolo[3,2-b]pyridin-7-yl)propyl carbamate] | 0.001 | 0.723
